Structures are written as SMILES. Where a SMILES comes first, the peptide text is derived from it. [ ]: non-standard residue; d: D form. The star is where a group is joined. Dolaproine = CO[C@@H]([C@@H]1CCCN1)[C@@H](C)C(=O)O; Dil = CC[C@H](C)[C@H](NC)[C@@H](CC(=O)O)OC; X1 = C[C@@H](N*)[C@@H](O)c1ccccc1; NMeV = CN[C@H](C(=O)O)C(C)C

In data set [1] the test system is orthotopically grafted human pancreatic tumor of Mia Paca type (Mia PaCa 2-Luc cells). Briefly: Therapeutic efficacy in vivo on a murine model of human pancreatic cancer (two weekly injections, D7 and D14). More on the design: species or system Swiss Nude mice. To be noted: 2 injections (D7 and D14), echography over 70 days, FIG. 2. Here is the method: The therapeutic efficacy of the conjugate of formula (III), as synthesized according to the reaction protocol described in example 1, was evaluated on 6-week-old female Swiss Nude mice (Charles River France Laboratories, l'Arbresle). The animals were acclimatized for 7 days in the laboratory before the experiment. The mice were housed in plastic cages equipped with filtering lids (HEPA filter), in a ventilated cage rack, housed at a temperature of 20±2° C. with a light/dark cycle of 12/12 hours, with free access to water and food ad libitum.
The Mia Paca 2 cells originate from a pancreatic adenocarcinoma from a person. The Mia Paca 2 pancreatic cancer cell line was supplied by the American Type Culture Collection (Rockville, Md.). These cells were chosen since they make it possible to generate tumors of hypoxic nature, reflecting the clinical pathological situation.
These cells were modified to express the luciferase gene (Mia PaCa 2-Luc). The cells were cultured in […] flasks and maintained in a humidified incubator at 37° C. in 5% CO2 with Dulbecco's Modified Eagle Medium (DMEM) supplemented with 10% of fetal calf serum, 2.5% of horse serum, 1% of L-glutamine and 1% of penicillin and streptomycin.
For the implantations, the abdomens of the mice were disinfected with an iodinated povidone solution (Betadine®, ASTA Medica, Belgium). A 1 cm incision was made in the upper left quadrant of the abdomen. The end of the tail of the pancreas was seized and the pancreas and also the spleen were gently externalized in a lateral direction so as to be fully exposed. The needle was inserted into the tail of the pancreas and positioned just in the region of the head of the pancreas. 2×10^6 Mia PaCa 2-Luc cells in 50 μl of PBS were slowly injected using a 27-caliber needle. The spleen was then put back into the appropriate position in the abdomen and the skin and the peritoneum were sutured with a 5.0-diameter resorbable thread. […]
The evolution of the tumor volume was monitored by echography. […]

Data set [2] deals with orthotopically grafted human breast tumor of MDA-MB-231 type (MDA-MB-231-Luc cells). Briefly: Therapeutic efficacy in vivo on a murine model of human breast cancer. More on the design: species or system Balb/c Nude mice. Here is the method:
The therapeutic efficacy of the conjugate of formula (III), as synthesized according to the reaction protocol described in example 1, was evaluated on 6-week-old female Balb/c Nude mice (Charles River France Laboratories—L'Arbresle) as indicated in example 3.
The MDA-MB-231 cells originate from a mammary adenocarcinoma from a person. The MDA-MB-231 mammary cancer cell line was supplied by Caliper LifeSciences (Roissy, France). These cells were chosen because they make it possible to generate tumors of hypoxic nature, reflecting the clinical pathological situation.
These cells are modified to express the luciferase gene. The cells were cultured in […] flasks and maintained in a humidified incubator at 37° C. under an atmosphere consisting of air, with Eagle's Minimal Essential Medium (EMEM) supplemented with 10% of fetal calf serum, 1% of L-glutamine, 1% of sodium pyruvate, 1% of non-essential amino acids, 2% of sodium bicarbonate and 1% of penicillin and streptomycin.
For the implantations, the abdomens of the mice were disinfected with an iodinated povidone solution (Betadine®, ASTA Medica, Belgium). The needle was inserted into the subcutaneous space, at the level of the lower left teat. 2×10^6 MDA-MB-231-Luc cells in 100 μl of PBS was slowly injected using a 27-caliber needle. The needle was then slowly withdrawn. For this, the mice will be anesthetized by inhalation of isoflurane (2% in air).
The mice (6 animals per group) received a treatment 15 days after the tumor implantations. The intravenous injections were carried out once a week for 5 weeks with doses of 4 mg/kg of conjugate of formula (III) (D15, D22, D29, D36 and D43). The control groups were treated either with MMAE alone with a dose of 0.3 mg/kg, or with the excipient consisting of a mixture of DMSO and PBS (5%/95%).
The evolution of the tumor volume was monitored by 3D echography. The measurements were carried out as described in example 2, on days 7, 11, 15, 19, 22, 25, 27, 29, 32, 34, 36, 39, 43 and 50.

As to `CC[C@H](C)[C@@H]([C@@H](CC(=O)N1CCC[C@H]1[C@H](OC)[C@@H](C)C(=O)N[C@H](C)[C@@H](O)c1ccccc1)OC)N(C)C(=O)[C@@H](NC(=O)[C@@H](NC)C(C)C)C(C)C` [MMAE, monomethyl auristatin E, reference compound] (H-[NMeV]V[Dil][Dolaproine]-X1), the “evolution of the tumor volume” value in data set [1] (0.3 mg/kg intravenous) is listed as “significant increase in the tumor volume is observed starting from day 35”. Besides, the “evolution of the tumor volume (antitumor activity versus control animals)” value in data set [2] (MMAE alone 0.3 mg/kg (FIG. 4 legend: 0.5 mg/kg) intravenous once a week for 5 weeks, FIG. 4 panel B) is listed as “only a very modest antitumor activity”.

With `CC[C@@H](C)[C@H]([C@H](CC(=O)N1CCC[C@@H]1[C@@H](OC)[C@H](C)C(=O)N[C@@H](C)[C@H](O)c1ccccc1)OC)N(C)C(=O)[C@H](NC(=O)[C@@H](C(C)C)N(C)C(=O)OC(Cc1cn(CCOCCOCCOCCOCCOCCOCCOCCOCCOCCOCCNC(=O)CCCCCN2C(=O)C=CC2=O)nn1)c1ccc(O[C@@H]2OC(C(=O)O)[C@@H](O)[C@H](O)C2O)c([N+](=O)[O-])c1)C(C)C` (stereo partly drawn) [conjugate of formula (III)], the “evolution of the tumor volume” value in data set [1] (2 mg/kg intravenous) was “the progression of the tumor volume is slower than with the control or the non-functionalized MMAE”; in data set [1] (4 mg/kg intravenous) it was “total absence of tumor growth”; in data set [2] (4 mg/kg intravenous once a week for 5 weeks (D15-D43), echography for 50 days, FIG. 4 panel C), “total and long-lasting regression of the tumor”. Moreover, in data set [2] (4 mg/kg intravenous once a week for 5 weeks), the visible side effects result was “without visible side effects”.

(Values after patent US10293021B2, “Conjugates and prodrugs for treating cancer and inflammatory diseases” (CENTRE NATIONAL DE LA RECHERCHE SCIENTIFIQUE, priority 2014, dated 2019).)
